Columns and labels:
[1] = system: Cricetinae gen. sp.; assay: Activity against pregnancy-interceptive activity in Syrian golden hamsters, when administered, at a dose of 6.36 mmol/kg; format: functional, Cricetulus griseus
[2] = system: Progesterone receptor (Mesocricetus auratus); assay: Percent inhibition of [3H]- progesterone binding to Syrian golden hamster uterine cytosol progesterone receptor, at 10e-5 M compound concentration; conditions: at 10 µM
[3] = system: Progesterone receptor (Mesocricetus auratus); assay: Percent inhibition of [3H]- progesterone binding to Syrian golden hamster uterine cytosol progesterone receptor, at 10e-9 M compound concentration; conditions: at 0.001 µM
[4] = target: T1, Progesterone receptor (Oryctolagus cuniculus) (UniProt P06186); assay: Percent inhibition of [3H]- progesterone binding to rabbit uterine progesterone receptor, at 10e-8 M compound concentration; conditions: at 0.01 µM
T1 sequence (whole entry): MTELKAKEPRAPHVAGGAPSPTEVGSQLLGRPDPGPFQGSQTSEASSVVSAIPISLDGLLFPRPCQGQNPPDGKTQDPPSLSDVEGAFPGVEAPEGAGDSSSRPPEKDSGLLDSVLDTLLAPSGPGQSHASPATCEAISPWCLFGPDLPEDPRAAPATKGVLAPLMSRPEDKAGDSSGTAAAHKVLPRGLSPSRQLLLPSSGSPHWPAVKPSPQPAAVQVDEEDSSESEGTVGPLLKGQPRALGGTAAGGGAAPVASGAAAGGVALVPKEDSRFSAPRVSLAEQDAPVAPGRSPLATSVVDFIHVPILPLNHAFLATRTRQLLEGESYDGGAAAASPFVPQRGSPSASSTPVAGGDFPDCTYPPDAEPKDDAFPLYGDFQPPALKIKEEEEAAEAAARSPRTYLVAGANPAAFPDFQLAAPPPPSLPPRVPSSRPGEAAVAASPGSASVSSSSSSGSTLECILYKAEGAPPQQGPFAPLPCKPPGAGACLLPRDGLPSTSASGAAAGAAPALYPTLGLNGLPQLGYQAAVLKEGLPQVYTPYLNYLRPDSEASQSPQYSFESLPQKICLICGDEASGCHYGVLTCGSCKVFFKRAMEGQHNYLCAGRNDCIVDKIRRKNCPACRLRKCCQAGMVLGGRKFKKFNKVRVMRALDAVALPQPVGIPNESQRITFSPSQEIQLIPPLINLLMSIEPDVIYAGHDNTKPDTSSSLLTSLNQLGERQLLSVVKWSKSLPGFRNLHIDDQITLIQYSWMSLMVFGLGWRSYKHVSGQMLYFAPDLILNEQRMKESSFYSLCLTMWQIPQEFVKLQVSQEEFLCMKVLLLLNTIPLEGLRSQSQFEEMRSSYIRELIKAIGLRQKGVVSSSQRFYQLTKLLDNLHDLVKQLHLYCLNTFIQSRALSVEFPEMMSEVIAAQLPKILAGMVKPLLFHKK

[5] = system: Progesterone receptor (Mesocricetus auratus); assay: Percent inhibition of [3H]- progesterone binding to Syrian golden hamster uterine cytosol progesterone receptor, at 10e-6 M compound concentration; conditions: at 1 µM
[6] = target: T1, Progesterone receptor (Oryctolagus cuniculus); assay: Percent inhibition of [3H]- progesterone binding to rabbit uterine progesterone receptor, at 10e-5 M compound concentration; conditions: at 10 µM
[7] = system: Progesterone receptor (Mesocricetus auratus); assay: Percent inhibition of [3H]- progesterone binding to Syrian golden hamster uterine cytosol progesterone receptor, at 10e-7 M compound concentration; conditions: at 0.1 µM
[8] = target: T1, Progesterone receptor (Oryctolagus cuniculus); assay: Percent inhibition of [3H]- progesterone binding to rabbit uterine progesterone receptor, at 10e-7 M compound concentration; conditions: at 0.1 µM
[9] = target: T1, Progesterone receptor (Oryctolagus cuniculus); assay: Percent inhibition of [3H]- progesterone binding to rabbit uterine progesterone receptor, at 10e-6 M compound concentration; conditions: at 1 µM
[10] = system: Progesterone receptor (Mesocricetus auratus); assay: Percent inhibition of [3H]- progesterone binding to Syrian golden hamster uterine cytosol progesterone receptor, at 10e-8 M compound concentration; conditions: at 0.01 µM
[11] = target: T1, Progesterone receptor (Oryctolagus cuniculus); assay: Percent inhibition of [3H]- progesterone binding to rabbit uterine progesterone receptor, at 10e-9 M compound concentration; conditions: at 0.001 µM
[12] = system: Cricetinae gen. sp.; assay: Activity against pregnancy-interceptive activity in Syrian golden hamsters, when administered, at a dose of 15.11 mmol/kg; format: functional
[13] = system: Cricetinae gen. sp.; assay: Activity against pregnancy-interceptive activity in Syrian golden hamsters, when administered, at a dose of 6.98 mmol/kg; format: functional
[14] = system: Cricetinae gen. sp.; assay: Activity against pregnancy-interceptive activity in Syrian golden hamsters, when administered, at a dose of 15.20 mmol/kg; format: functional
[15] = system: Cricetinae gen. sp.; assay: Activity against pregnancy-interceptive activity in Syrian golden hamsters, when administered, at a dose of 13.15 mmol/kg; format: functional
[16] = system: Cricetinae gen. sp.; assay: Activity against pregnancy-interceptive activity in Syrian golden hamsters, when administered, at a dose of 5.64 mmol/kg; format: functional
[17] = system: Cricetinae gen. sp.; assay: Activity against pregnancy-interceptive activity in Syrian golden hamsters, when administered, at a dose of 12.08 mmol/kg; format: functional
[18] = system: Cricetinae gen. sp.; assay: Activity against pregnancy-interceptive activity in Syrian golden hamsters, when administered, at a dose of 5.54 mmol/kg; format: functional
[19] = system: Cricetinae gen. sp.; assay: Activity against pregnancy-interceptive activity in Syrian golden hamsters, when administered, at a dose of 8.82 mmol/kg; format: functional
[20] = system: Cricetinae gen. sp.; assay: Activity against pregnancy-interceptive activity in Syrian golden hamsters, when administered, at a dose of 14.62 mmol/kg; format: functional
[21] = system: Cricetinae gen. sp.; assay: Activity against pregnancy-interceptive activity in Syrian golden hamsters, when administered, at a dose of 7.83 mmol/kg; format: functional
[22] = target: T1, Progesterone receptor (Oryctolagus cuniculus); assay: Percent inhibition of [3H]- progesterone binding to rabbit uterine progesterone receptor at 10e-7 M
[23] = system: Cricetinae gen. sp.; assay: Activity against pregnancy-interceptive activity in Syrian golden hamsters, when administered, at a dose of 6.96 mmol/kg; format: functional
[24] = system: Cricetinae gen. sp.; assay: Activity against pregnancy-interceptive activity in Syrian golden hamsters, when administered, at a dose of 8.35 mmol/kg; format: functional, Cricetulus griseus
[25] = system: Cricetinae gen. sp.; assay: Activity against pregnancy-interceptive activity in Syrian golden hamsters, when administered, at a dose of 4.95 mmol/kg; format: functional
[26] = system: Cricetinae gen. sp.; assay: Activity against pregnancy-interceptive activity in Syrian golden hamsters, when administered, at a dose of 19.43 mmol/kg; format: functional
[27] = system: Cricetinae gen. sp.; assay: Activity against pregnancy-interceptive activity in Syrian golden hamsters, when administered, at a dose of 6.70 mmol/kg; format: functional
[28] = system: Cricetinae gen. sp.; assay: Activity against pregnancy-interceptive activity in Syrian golden hamsters, when administered, at a dose of 6.66 mmol/kg; format: functional

SMILES | inhibition [2] | inhibition [3] | inhibition [4] | inhibition [5] | inhibition [6] | inhibition [7] | inhibition [8] | inhibition [9] | inhibition [10] | inhibition [11] | other results
COC(=O)C1=C(C)N=C(C)/C(=C(/O)OC)C1c1cc2ccccc2n2nnnc12 (centres undefined) | 10% | 0% | 10% | 9% | 14% | 10% | 12% | 8% | 8% | 0% | Activity [1]: 2.5
COC(=O)C1=C(C)N=C(C)/C(=C(/O)OC)C1c1ccc2nc3n(c2c1)C(=O)c1ccccc1-3 (centres undefined) | 16% | 6% | 0% | 10% | 15% | 8% | 0% | 15% | 9% | 0% | Activity [16]: 3.8
COC(=O)Nc1nc2cc(C3C(C(=O)OC)=C(C)N=C(C)/C3=C(/O)OC)ccc2[nH]1 (centres undefined) | 28% | 0% | 5% | 15% | 20% | 16% | 16% | 16% | 10% | 5% | Activity [17]: 1.5
COC(=O)C1=C(C)N=C(C)/C(=C(/O)OC)C1c1ccc(NCc2ccccc2)c([N+](=O)[O-])c1 (centres undefined) | 10% | 0% | 10% | 6% | 12% | 4% | 0% | 10% | 0% | 0% | Activity [18]: 2.5
COC(=O)C1=C(C)N=C(C)/C(=C(/O)OC)C1c1ccc2nc(-c3ccc(OC)cc3)n(Cc3ccc(OC)cc3)c2c1 (centres undefined) | 24% | 10% | 6% | 20% | 20% | 15% | 10% | 16% | 12% | 2% | Activity [19]: 6
COC(=O)C1=C(C)N=C(C)/C(=C(\O)OC)C1c1cc(C(=O)c2ccc(C)cc2)c(OC)cc1OC (centres undefined) | 18% | 8% | 11% | 15% | 23% | 15% |  | 18% | 12% | 10% | Activity [21]: 6; inhibition [22]: 15%
COC(=O)C1=C(C)N=C(C)/C(=C(/O)OC)C1c1ccc2nc(-c3ccc(O)c(OC)c3)n(Cc3ccc(O)c(OC)c3)c2c1 (centres undefined) | 18% | 3% | 8% | 18% | 20% | 12% | 15% | 15% | 5% | 5% | Activity [24]: 1.2
COC(=O)C1=C(C)N=C(C)/C(=C(/O)OC)C1c1ccc2nc(-c3ccccc3)c(-c3ccccc3)nc2c1 (centres undefined) | 18% | 6% | 2% | 15% | 16% | 12% | 10% | 18% | 9% | 2% | Activity [25]: 4.6
COC(=O)C1=C(C)N=C(C)/C(=C(/O)OC)C1c1cc2ccccc2nc1Cl (centres undefined) | 14% | 6% | 11% | 14% | 17% | 11% | 10% | 16% | 10% | 8% | Activity [26]: 3

Now from value to compound, other results behind:

inhibition [2] | inhibition [3] | inhibition [4] | inhibition [5] | inhibition [6] | inhibition [7] | inhibition [8] | inhibition [9] | inhibition [10] | inhibition [11] | SMILES | other results
18% | 0% | 10% | 14% | 21% | 9% | 16% | 15% | 0% | 13% | COC(=O)C1=C(C)N=C(C)/C(=C(/O)OC)C1c1ccc(N)c(N)c1 (centres undefined) | Activity [12]: 2.3
 |  |  |  | 15% |  |  | 18% |  |  | COC(=O)C1=C(C)N=C(C)/C(=C(\O)OC)C1c1ccc(NC(C)=O)cc1 (centres undefined) | Activity [13]: 0.66
12% | 0% | 4% | 10% | 15% | 5% | 8% | 10% | 9% | 3% | COC(=O)C1=C(C)N=C(C)/C(=C(/O)OC)C1c1ccc(C=O)cc1 (centres undefined) | Activity [14]: 5.15
24% | 2% | 0% | 14% | 18% | 10% | 5% | 10% | 5% | 0% | COC(=O)C1=C(C)N=C(C)/C(=C(/O)OC)C1c1ccc(Cl)c([N+](=O)[O-])c1 (centres undefined) | Activity [15]: 2.6
26% | 9% | 8% | 18% | 22% | 16% | 12% | 20% | 12% | 10% | COC(=O)C1=C(C)N=C(C)/C(=C(/O)OC)C1c1ccc2[nH]nnc2c1 (centres undefined) | Activity [20]: 5.2
40% | 10% | 0% | 32% | 25% | 27% |  | 15% | 10% | 0% | COC(=O)C1=C(C)N=C(C)/C(=C(\O)OC)C1c1ccc(C(=O)OC)cc1 (centres undefined) | Activity [23]: 0.72; inhibition [22]: 20%
30% | 9% | 10% | 26% | 20% | 18% | 15% | 18% | 10% | 0% | COC(=O)C1=C(C)N=C(C)/C(=C(/O)OC)C1c1ccc2[nH]c(S)nc2c1 (centres undefined) | Activity [27]: 5
12% | 4% | 8% | 13% | 14% | 10% | 10% | 10% | 4% | 5% | CNc1ccc(C2C(C(=O)OC)=C(C)N=C(C)/C2=C(/O)OC)cc1[N+](=O)[O-] (centres undefined) | Activity [28]: 6.8
